Test results as given in patent US10590113B2, “6-hydroxy-4-oxo-1,4-dihydropyrimidine-5-carboxamides as APJ agonists” (priority 2016, dated 2020).
pEC50: −log10 of the molar value.

These compounds were tested against T1, human APJ receptor (Homo sapiens, UniProt P35414) (assay: Intracellular cAMP Accumulation Assay (APJ hcAMP, HTRF)). Conditions: not given.
T1 construct: expressed in transfected cells; host or cells: HEK293
T1 sequence (P35414 1-380): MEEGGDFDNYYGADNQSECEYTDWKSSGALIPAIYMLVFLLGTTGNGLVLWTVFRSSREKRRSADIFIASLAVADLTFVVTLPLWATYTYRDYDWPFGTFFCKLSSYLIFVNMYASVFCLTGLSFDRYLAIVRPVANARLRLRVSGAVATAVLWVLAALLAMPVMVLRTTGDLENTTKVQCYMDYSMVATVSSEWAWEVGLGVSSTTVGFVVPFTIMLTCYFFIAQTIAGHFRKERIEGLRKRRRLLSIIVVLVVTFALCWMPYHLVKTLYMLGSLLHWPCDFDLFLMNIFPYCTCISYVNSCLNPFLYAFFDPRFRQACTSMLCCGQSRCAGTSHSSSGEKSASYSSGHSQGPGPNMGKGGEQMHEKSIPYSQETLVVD
Assay type: cell-based
Procedure, shortened: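 Stably transfected HEK293 cells (5,000/well) incubated 30 min at room temperature with serially diluted compound, […] and 2 μM forskolin. cAMP measured by HTRF after 60 min with detection reagents, quantified against a cAMP standard curve; EC50 from variable-slope sigmoidal fit of inhibition of forskolin-stimulated cAMP.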

pEC50	SMILES
8.00 to 11.00	CCCCc1nc(=O)c(C(=O)N2CCC(c3ccc(Cl)cc3)C2)c(O)n1-c1c(OC)cccc1OC (single isomer, unassigned) [Example 46, 2-butyl-5-[3-(4-chlorophenyl)pyrrolidine-1-carbonyl]-1-(2,6-dimethoxyphenyl)-6-hydroxy-1,4-dihydropyrimidin-4-one]

Same assay, conditions: HEK293 cells stably expressing human APJ receptor; inhibition of forskolin-mediated cAMP production; read-out: Human APJ cAMP EC50 potency range

pEC50	SMILES
8.00 to 11.00	CCCCc1nc(=O)c(C(=O)N2CC[C@H](c3ccccc3)C2)c(O)n1-c1c(C2CC2)cccc1C1CC1 [Example 2, (R)-2-Butyl-1-(2,6-dicyclopropylphenyl)-6-hydroxy-5-(3-phenylpyrrolidine-1-carbonyl)pyrimidin-4(1H)-one]
8.00 to 11.00	C=CCCc1nc(O)c(C(=O)N2CC[C@H](c3ccccc3)C2)c(=O)n1-c1c(C)cccc1OC (single isomer, unassigned) [Example 8]

Same assay, conditions: human APJ, cAMP accumulation; potency range class; read-out: hAPJ cAMP EC50 Potency range

pEC50	SMILES
8.00 to 11.00	COc1cccc(-c2nc(=O)c(C(=O)N3CCC(c4ncc(F)cc4F)C3)c(O)n2-c2c(OC)cccc2OC)c1 (single isomer, unassigned) [Example 246, 5-[3-(3,5-difluoropyridin-2-yl)pyrrolidine-1-carbonyl]-1-(2,6-dimethoxyphenyl)-6-hydroxy-2-(3-methoxyphenyl)-1,4-dihydropyrimidin-4-one]
8.00 to 11.00	CCn1ccc(-c2nc(=O)c(C(=O)N3CC[C@H](c4ccccc4)C3)c(O)n2-c2c(OC)cccc2OC)n1 [Example 284, 1-(2,6-dimethoxyphenyl)-2-(1-ethyl-1H-pyrazol-3-yl)-6-hydroxy-5-[(3R)-3-phenylpyrrolidine-1-carbonyl]-1,4-dihydropyrimidin-4-one]
8.00 to 11.00	CCCCc1nc(=O)c(C(=O)N2CCC(c3ncc(Cl)cc3F)C2)c(O)n1-c1c(OC)cccc1OC (single isomer, unassigned) [Example 357, 2-butyl-5-(3-(5-chloro-3-fluoropyridin-2-yl)pyrrolidine-1-carbonyl)-1-(2,6-dimethoxyphenyl)-6-hydroxypyrimidin-4(1H)-one]
8.00 to 11.00	COc1cccc(OC)c1-n1c(-c2cccc(Cl)c2)nc(=O)c(C(=O)N2CCC(c3ncc(F)cc3F)C2)c1O (single isomer, unassigned) [Example 238, 2-(3-chlorophenyl)-5-[3-(3,5-difluoropyridin-2-yl)pyrrolidine-1-carbonyl]-1-(2,6-dimethoxyphenyl)-6-hydroxy-1,4-dihydropyrimidin-4-one]
8.00 to 11.00	CCc1cccc(CC)c1-n1c(-c2ccn(CC)n2)nc(=O)c(C(=O)N2CCC(c3ncccc3F)C2)c1O (single isomer, unassigned) [Example 308, 1-(2,6-diethylphenyl)-2-(1-ethyl-1H-pyrazol-3-yl)-5-[3-(3-fluoropyridin-2-yl)pyrrolidine-1-carbonyl]-6-hydroxy-1,4-dihydropyrimidin-4-one]

Continued, compound first:

SMILES	pEC50
CCCCc1nc(O)c(C(=O)N2CCC(c3ncc(F)cc3F)C2)c(=O)n1[C@@H](CC)c1ccccc1 (single isomer, unassigned) [Example 345]	8.00 to 11.00
CCn1ccc(-c2nc(=O)c(C(=O)N3CCC(c4ncc(Cl)cc4F)C3)c(O)n2[C@H](c2cc(F)cc(F)c2)C(C)C)n1 (single isomer, unassigned) [Example 326]	8.00 to 11.00
CC[C@@H](c1ccccc1)n1c(-c2nc(C)cs2)nc(=O)c(C(=O)N2CCC(c3ncc(Cl)cc3F)C2)c1O (single isomer, unassigned) [Example 323]	8.00 to 11.00

Same assay, conditions: human APJ, intracellular cAMP accumulation; read-out: hAPJ cAMP EC50 Potency range

pEC50	SMILES
8.00 to 11.00	COc1cccc(OC)c1-n1c(COC(C)C)nc(=O)c(C(=O)N2CCC(c3ccc(F)cc3F)C2)c1O (single isomer, unassigned) [Example 163, 5-[3-(2,4-difluorophenyl)pyrrolidine-1-carbonyl]-1-(2,6-dimethoxyphenyl)-6-hydroxy-2-[(propan-2-yloxy)methyl]-1,4-dihydropyrimidin-4-one]
8.00 to 11.00	COc1ccccc1C1CCN(C(=O)c2c(O)n(-c3c(OC)cccc3OC)c(COC(C)C)nc2=O)C1 (single isomer, unassigned) [Example 161, 1-(2,6-dimethoxy-phenyl)-6-hydroxy-5-[3-(2-methoxy-phenyl)pyrrolidine-1-carbonyl]-2-[(propan-2-yloxy)methyl]-1,4-dihydropyrimidin-4-one]
8.00 to 11.00	COc1cccc(OC)c1-n1c(CCC2CC2)nc(=O)c(C(=O)N2CC=C(c3ccc(Cl)cn3)C2)c1O [Example 172, 5-[3-(5-chloropyridin-2-yl)-2,5-dihydro-1H-pyrrole-1-carbonyl]-2-(2-cyclopropylethyl)-1-(2,6-dimethoxyphenyl)-6-hydroxy-1,4-dihydropyrimidin-4-one]
8.00 to 11.00	COc1cccc(OC)c1-n1c(COC2CC2)nc(=O)c(C(=O)N2CCC(c3ccccc3F)C2)c1O (single isomer, unassigned) [Example 10, 2-(cyclopropoxymethyl)-1-(2,6-dimethoxyphenyl)-5-(3-(2-fluorophenyl)pyrrolidine-1-carbonyl)-6-hydroxypyrimidin-4(1H)-one]

Continued, compound first:

SMILES	pEC50
CCCCc1nc(=O)c(C(=O)N2CC[C@H](OCc3ccccn3)C2)c(O)n1-c1c(OC)cccc1OC [Example 64, 2-butyl-1-(2,6-dimethoxyphenyl)-6-hydroxy-5-[(3S)-3-[(pyridin-2-yl)methoxy]pyrrolidine-1-carbonyl]-1,4-dihydropyrimidin-4-one]	8.00 to 11.00
CC[C@@H](c1cc(F)cc(F)c1)n1c(-c2cnn(C)c2)nc(=O)c(C(=O)N2CCC(c3ccc(F)cc3)C2)c1O (single isomer, unassigned) [Example 197]	8.00 to 11.00
CC[C@@H](c1cc(F)cc(F)c1)n1c(-c2cnn(C)c2)nc(=O)c(C(=O)N2CCC(c3ccc(F)cn3)C2)c1O (single isomer, unassigned) [Example 220]	8.00 to 11.00
CCCCc1nc(=O)c(C(=O)N2CC[C@H](NC(=O)OCc3ccccc3)C2)c(O)n1-c1c(OC)cccc1OC [Example 58, benzyl N-[(3S)-1-[2-butyl-1-(2,6-dimethoxyphenyl)-6-hydroxy-4-oxo-1,4-dihydropyrimidine-5-carbonyl]pyrrolidin-3-yl]carbamate]	7.00 to 8.00
CC[C@@H](c1cc(F)cc(F)c1)n1c(-c2ccn(CC)n2)nc(=O)c(C(=O)N2CCC(c3ncc(Cl)cc3F)C2)c1O (single isomer, unassigned) [Example 214]	8.00 to 11.00
CCCCc1nc(=O)c(C(=O)N2CC[C@H](c3ccccc3)C2)c(O)n1[C@H](CC)c1ccccc1 [Example 124, 2-butyl-6-hydroxy-3-[(1R)-1-phenylpropyl]-5-[(3R)-3-phenylpyrrolidine-1-carbonyl]-3,4-dihydropyrimidin-4-one]	8.00 to 11.00
CCCCc1nc(=O)c(C(=O)N2CC[C@@H](c3ccccc3)C2)c(O)n1[C@@H](C)C1CC1 [Example 131, 2-butyl-3-[(1S)-1-cyc1opropylethyl]-6-hydroxy-5-[(3S)-3-phenylpyrrolidine-1-carbonyl]-3,4-dihydropyrimidin-4-one]	7.00 to 8.00
CCCCc1nc(=O)c(C(=O)N2CC[C@H](c3ccccc3)C2)c(O)n1[C@@H](COC)c1ccccc1 [Example 116, 2-butyl-6-hydroxy-3-[(1R)-2-methoxy-1-phenylethyl]-5-[(3R)-3-phenylpyrrolidine-1-carbonyl]-3,4-dihydropyrimidin-4-one]	8.00 to 11.00
CC[C@@H](c1cc(F)cc(F)c1)n1c(-c2nc(C)cs2)nc(=O)c(C(=O)N2CCC(c3ccccc3OC)C2)c1O (single isomer, unassigned) [Example 207]	8.00 to 11.00
CC[C@@H](c1cc(F)cc(F)c1)n1c(-c2ccn(CC)n2)nc(=O)c(C(=O)N2CCC(c3cc(F)ccn3)C2)c1O (single isomer, unassigned) [Example 202]	8.00 to 11.00
CC[C@@H](c1cc(F)cc(F)c1)n1c(-c2cnn(C)c2)nc(=O)c(C(=O)N2CCC(c3ccccc3F)C2)c1O (single isomer, unassigned) [Example 196]	8.00 to 11.00

Same assay, conditions: read-out: hAPJ cAMP EC50 Potency range

pEC50	SMILES
8.00 to 11.00	CCOCc1nc(=O)c(C(=O)N2CCC(Oc3ccc(Cl)cc3)CC2)c(O)n1-c1c(OC)cccc1OC [Example 377, 5-(4-(4-chlorophenoxy)piperidine-1-carbonyl)-1-(2,6-dimethoxyphenyl)-2-(ethoxymethyl)-6-hydroxypyrimidin-4(1H)-one]
8.00 to 11.00	CCOCc1nc(=O)c(C(=O)N2CCC(Cc3ccc(F)cc3)CC2)c(O)n1-c1c(OC)cccc1OC [Example 374, 1-(2,6-dimethoxyphenyl)-2-(ethoxymethyl)-5-(4-(4-fluorobenzyl)piperidine-1-carbonyl)-6-hydroxypyrimidin-4(1H)-one]
8.00 to 11.00	CCOCc1nc(=O)c(C(=O)N2CCC(Cc3ccc(Cl)cc3)CC2)c(O)n1-c1c(OC)cccc1OC [Example 375, 5-(4-(4-chlorobenzyl)piperidine-1-carbonyl)-1-(2,6-dimethoxyphenyl)-2-(ethoxymethyl)-6-hydroxypyrimidin-4(1H)-one]

Same assay, conditions: read-out: hAPJ cAMP EC50 Potency range; human APJ, intracellular cAMP accumulation

pEC50	SMILES
8.00 to 11.00	CCCCc1nc(=O)c(C(=O)N2CCC(c3cccnc3)C2)c(O)n1-c1c(OC)cccc1OC (single isomer, unassigned) [Example 76, 2-butyl-1-(2,6-dimethoxyphenyl)-6-hydroxy-5-[3-(pyridin-3-yl)pyrrolidine-1-carbonyl]-1,4-dihydropyrimidin-4-one]
